Laboratory results as given in PMC5472792, “Bub1 positions Mad1 close to KNL1 MELT repeats to promote checkpoint signalling” (Nature Communications, 2017).
Square brackets hold non-standard residues; d marks the D form. Peptide text beside a SMILES is read from it. * marks the point of attachment. Biotin = O=C1N[C@H]2[C@H](CS[C@H]2CCCCC(=O)*)N1; pT = C[C@@H](OP(=O)(O)O)[C@H](N)C(=O)O; Nle = CCCC[C@H](N)C(=O)O

Target: T1, Mad1 597–718 Glu710Ala/Phe712Ala (Homo sapiens, UniProt Q9Y6D9, E710A/F712A)
T1 construct: His; Strep; made in house; host or cells: E. coli BL21(DE3) (stated for the wild-type construct)
T1 sequence (Q9Y6D9 597-718 E710A/F712A): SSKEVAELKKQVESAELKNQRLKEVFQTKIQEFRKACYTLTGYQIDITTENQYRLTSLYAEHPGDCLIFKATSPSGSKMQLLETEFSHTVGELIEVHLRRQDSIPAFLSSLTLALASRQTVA
Experiment: SPR, binding of CD1 peptide to Mad1 597–718 Glu710Ala/Phe712Ala
Conditions: steady state, similar to Fig. 4
Text: To investigate this, we first tested the role of these Mad1 residues in binding Bub1. We measured the ability of recombinant Mad1 (597–718) Glu710Ala/Phe712Ala to bind the CD1 peptide phosphorylated on Thr461. […] This argues that Mad1 has an important function in the checkpoint in addition to interacting with Mad2 and Bub1.
Figure 6 Residues in Mad1 are important for SAC function but not Bub1 binding. (a) SPR steady-state responses for pT461 Bub1 CD1 peptides to purified Mad1 597–718 Glu710Ala/Phe712Ala protein similar to Fig. 4. (b) Nocodazole arrested stable HeLa cell lines expressing Mad1-BirA or mutants were treated with biotin as indicated and biotinylated proteins were isolated. The samples were analysed for the presence of KNL1, Bub1 and BubR1 by western blot. Mad1-BirA (WT), Mad1(EFR/AAA)-BirA and Mad1 (RLK/AAA)-BirA. Representative of two independent experiments. […] Live cell imaging and quantification were performed as in Fig. 5a. […] The number of cells analysed per condition is indicated above. […]
Bub1 peptides were purchased from Biosyntan Gmbh (Germany). The purity obtained in the synthesis was 95–98% as determined by high-performance liquid chromatography (HPLC) and the identity of the peptides was confirmed by mass spectrometry. […] Sensorgrams were analysed after double referencing. […]

For `CCCC[C@H](NC(=O)[C@H](CC(N)=O)NC(=O)[C@H](CCCC)NC(=O)[C@@H](NC(=O)[C@H](Cc1ccccc1)NC(=O)CNC(=O)[C@H](CC(C)C)NC(=O)[C@H](C)NC(=O)[C@H](CCC(=O)O)NC(=O)[C@H](CCCCN)NC(=O)[C@@H](NC(=O)[C@H](Cc1c[nH]cn1)NC(=O)[C@@H](NC(=O)[C@@H](NC(=O)[C@@H]1CCCN1C(=O)[C@H](CO)NC(=O)[C@@H]1CCCN1C(=O)[C@H](CCC(N)=O)NC(=O)[C@@H](NC(=O)[C@H](CCCCN)NC(=O)[C@H](CO)NC(=O)[C@@H]1CCCN1C(=O)[C@@H](NC(=O)[C@H](C)NC(=O)[C@H](CCC(N)=O)NC(=O)[C@@H](NC(=O)CCCC[C@@H]1SC[C@@H]2NC(=O)N[C@@H]21)C(C)C)[C@@H](C)O)C(C)C)[C@@H](C)OP(=O)(O)O)C(C)C)[C@@H](C)O)[C@@H](C)CC)C(=O)N[C@@H](Cc1ccccc1)C(=O)N[C@@H](CCC(N)=O)C(=O)N[C@@H](C)C(=O)N1CCC[C@H]1C(=O)N[C@H](C(=O)N[C@@H](CC(C)C)C(=O)N[C@@H](Cc1c[nH]c2ccccc12)C(=O)O)[C@@H](C)O` [CD1 pT461] (Biotin-VQATPSKVQPSP[pT]VHTKEALGFI[Nle]N[Nle]FQAPTLW-OH; C-terminus assumed), the KD was “the same affinity towards phosphorylated CD1 as wild type Mad1”.
